Values after ≈ are worked out from the molar mass of the structure shown. Where two headings read alike, the source gives them in different places.
How the values were obtained:
Escherichia coli (Ec) = assay: MIC in nutrient agar, Escherichia coli; format: cell-based, Escherichia coli ATCC 11229
Method: (§1) The minimum inhibitory concentration (MIC) for the compounds listed in Table I is determined for 9 bacteria, using nutrient agar, and 7 yeast and fungi, using malt yeast agar. A one percent solution of the test compound is prepared in a mixture of acetone and water. Nutrient agar is prepared at pH 6.8, representing a neutral medium, and at pH 8.2, representing an alkaline medium. The nutrient agars are prepared by adding 23 g of nutrient agar to one-liter of deionized water. In addition, the alkaline medium is prepared by adjusting a 0.04M solution of N-[tris-(hydroxymethyl)methyl]-glycine buffered deionized water with concentrated sodium hydroxide to a pH of […]. Malt yeast agar is prepared by adding 3 g yeast extract and 45 g malt agar per liter of deionized water. The specific agar is dispensed in 30 ml aliquots into 25×200 mm test tubes, capped and autoclaved for 15 minutes at 115° C. The test tubes containing the agar are cooled in a water bath until the temperature of the agar is 48° C. Then, an appropriate amount of the one percent solution of the test compound is added (except in the controls where no compound is added) to the respective test tubes so that the final concentrations are 500, 250, 100, 50, 25, 10, 5, 2.5, 1.0 and zero parts per million of the test compound in the agar, thus having a known concentration of test compound dispersed therein. The contents of the test tubes are then transferred to respective petri plates. After drying for 24 hours, the petri plates containing nutrient agar are inoculated with bacteria and those containing malt yeast agar are inoculated with yeast and fungi.
(§2) The inoculation with bacteria is accomplished by using the following procedure. Twenty-four hour-cultures of each of the bacteria are prepared by incubating the respective bacteria in tubes containing nutrient broth for 24 hours at 30° C. in a shaker. Dilutions of each of the 24 hour-cultures are made so that nine separate suspensions (one for each of the nine test bacteria) are made, each containing 10^8 colony forming units (CFU) per ml of suspension of a particular bacteria. Aliquots of 0.3 ml of each of the bacterial suspensions are used to fill the individual wells of Steer's Replicator. For each microbial suspension, 0.3 ml was used to fill three wells (i.e., three wells of 0.3 ml each) so that for the nine different bacteria, 27 wells are filled. The Steer's Replicator is then used to inoculate both the neutral and alkaline pH nutrient agar petri plates.
(§3) The inoculated petri plates are incubated at 30° C. for 48 hours and then read to determine if the test compound which is incorporated into the agar prevented growth of the respective bacteria.
(§4) Table II lists the bacteria, yeast and fungi used in the MIC test described above along with their respective American Type Culture Collection (ATCC) identification numbers.
(§5) The following MIC and MEC antimicrobial tests, whose results are shown in Tables XIII-XVII, are performed using the same methods as described hereinabove.

[1] = test system: Klebsiella pneumoniae (Kp); assay: MIC in nutrient agar, Klebsiella pneumoniae; format: cell-based, Klebsiella pneumoniae ATCC 8308
Method: as §1, §2, §3, §4, §5

[2] = test system: Salmonella choleraesuis (Sc); assay: MIC in nutrient agar, Salmonella choleraesuis; format: cell-based, Salmonella choleraesuis ATCC 10708
Method: as §1, §2, §3, §4, §5

[3] = test system: Staphylococcus aureus (Sa); assay: MIC in nutrient agar, Staphylococcus aureus; format: cell-based, Staphylococcus aureus ATCC 6538
Method: as §1, §2, §3, §4, §5

[4] = test system: Penicillium chrysogenum (Pc); assay: MIC in malt yeast agar, Penicillium chrysogenum; format: cell-based, Penicillium chrysogenum ATCC 9480; conditions: read-out: Minimum Inhibitory Concentration, Pc
Method: as §1
(§6) The inoculation with the yeast and fungi is accomplished as follows. Cultures of yeast and fungi are incubated for seven days on malt yeast agar at 30° C. These cultures are used to prepare suspensions by the following procedure. A suspension of each organism is prepared by adding 10 ml of sterile saline and 10 microliters of octylphenoxy polyethoxy ethanol (TRITON® X-100, a trademark of Rohm & Haas Company) to the agar slant of yeast or fungi. The sterile saline/octylphenoxy polyethoxy ethanol solution is then agitated with a sterile swab to suspend the microorganism grown on the slant. Each resulting suspension is diluted into sterile saline (1 part suspension: 9 parts sterile saline). Aliquots of these dilutions are placed in individual wells of Steer's Replicator and petri plates inoculated as previously described. The petri plates are incubated at 30° C. and read after 48 hours for yeast and 72 hours for fungi.
as §4, §5

[5] = test system: Saccharomyces cerevisiae (Sc); assay: MIC in malt yeast agar, Saccharomyces cerevisiae; format: cell-based, Saccharomyces cerevisiae ATCC 4105; conditions: read-out: Minimum Inhibitory Concentration, Sc
Method: as §1, §6, §4, §5

[6] = test system: mixture of the bacterial organisms listed in Table II; assay: Multiple Challenge Test in styrene-butadiene latex; format: cell-based, bacteria listed in Table II; conditions: Styrene-Butadiene Latex Formulation; 10 challenges
Method: (§7) Additionally, the ability of the compounds of Table I to serve as preservatives in a variety of formulated industrial, household, and commercial products is tested using a Multiple Challenge Test Protocol. In this test, the formulations include a styrene-butadiene latex, a tape joint, a hand lotion, and a shampoo. The styrene-butadiene latex test formulation used is Latex DL 238A, available from The Dow Chemical Company. The compositions of the tape joint, hand lotion and shampoo test formulations can be found in Tables V-VII.
(§8) The formulations are separated into 50 g aliquots and placed in sterile bottles. An appropriate amount of a fresh one percent stock solution of the test compound in acetone-water is added to achieve the desired final concentrations. A small portion of each of the test formulations is streaked onto Tryptic Soy Agar (TSA) petri plates using sterile cotton swabs to ensure that the formulations are sterile. If the formulation is sterile, then it is inoculated with 0.1 ml of a mixture of equal aliquots of the 24 hour cultures of each of the bacterial organisms listed in Table II. The test formulations are then incubated at 30° C. After 24 hours, each sample is streaked onto a TSA petri plate using a sterile swab. All plates are then incubated at 30° C. for 48 hours and then rated for microbial growth using the rating system listed in Table VIII. Samples with a rating of 3 or less are reinoculated as described in the procedure for the first inoculation. Samples with a rating of 4 or greater are not reinoculated but after another 24 hours are restreaked on TSA agar.
(§9) The normal interpretation of the results is that a concentration of the antimicrobial being tested is considered to be effective if no ratings greater than a 3 are observed throughout the 10 challenges. The Minimum Effective Concentration (MEC), which is used to compare the activity of the antimicrobial additives in the end-use formulations, is the minimum level that is effective under the conditions of the Multiple Challenge Test.

[7] = test system: mixture of the bacterial organisms listed in Table II; assay: Multiple Challenge Test in tape joint formulation; format: cell-based, bacteria listed in Table II; conditions: 10 challenges
Method: as §7, §8, §9

[8] = test system: mixture of the bacterial organisms listed in Table II; assay: Multiple Challenge Test in shampoo formulation; format: cell-based, bacteria listed in Table II; conditions: 10 challenges
Method: as §7, §8, §9

[9] = Escherichia coli, pH 6.8; read-out: Minimum Inhibitory Concentration, Ec
[10] = Escherichia coli, pH 8.2, read-out: Minimum Inhibitory Concentration, Ec
[11] = pH 6.8, read-out: Minimum Inhibitory Concentration, Kp
[12] = pH 8.2, read-out: Minimum Inhibitory Concentration, Kp
[13] = Salmonella enterica, CHOLERAESUIS, pH 6.8; read-out: Minimum Inhibitory Concentration, Sc
[14] = Salmonella enterica, CHOLERAESUIS, pH 8.2; read-out: Minimum Inhibitory Concentration, Sc
[15] = Staphylococcus aureus, pH 6.8; read-out: Minimum Inhibitory Concentration, Sa
[16] = Staphylococcus aureus, pH 8.2, read-out: Minimum Inhibitory Concentration, Sa
[17] = Escherichia coli, pH 8.2; read-out: Minimum Inhibitory Concentration, Ec
[18] = Staphylococcus aureus, pH 6.8, read-out: Minimum Inhibitory Concentration, Sa
[19] = Staphylococcus aureus, pH 8.2; read-out: Minimum Inhibitory Concentration, Sa

SMILES | MIC (Escherichia coli (Ec); [9]) [µg/mL] | MIC (Escherichia coli (Ec); [10]) [µg/mL] | MIC [1, 11] [µg/mL] | MIC [1, 12] [µg/mL] | MIC [2, 13] [µg/mL] | MIC [2, 14] [µg/mL] | MIC [3, 15] [µg/mL] | MIC [3, 16] [µg/mL] | MIC ([4]; malt yeast agar) [µg/mL] | MIC ([5]; malt yeast agar) [µg/mL] | MEC [6] [ppm] | MEC [7] [ppm] | MEC [8] [ppm] | MIC (Escherichia coli (Ec); [17]) [µg/mL] | MIC [3, 18] [µg/mL] | MIC [3, 19] [µg/mL] | MIC [5] [µg/mL] | further results
CCSC#CC#N [B, 3-ethylthio-2-propynenitrile] | 5 (≈ 45 µM) | 10 (≈ 90 µM) | 5 (≈ 45 µM) | 5 (≈ 45 µM) | 5 (≈ 45 µM) | 10 (≈ 90 µM) | 5 (≈ 45 µM) | 10 (≈ 90 µM) | < 1 | < 1 | 25 | 25 | 25 | – | – | – | – | –
N#CC#CSC1CCCC1 [C, 3-cyclopentylthio-2-propynenitrile] | < 10 | – | < 10 | 25 (≈ 165 µM) | < 10 | 25 (≈ 165 µM) | – | – | < 1 | – | 100 | 100 | 100 | < 10 | < 10 | < 10 | 2.5 (≈ 16.5 µM) | –
CSC#CC#N [Compound A, 3-methylthio-2-propynenitrile] | 2.5 (≈ 25.7 µM) | – | 2.5 (≈ 25.7 µM) | 10 (≈ 103 µM) | 2.5 (≈ 25.7 µM) | 5 (≈ 51.5 µM) | 2.5 (≈ 25.7 µM) | – | 0.25 (≈ 2.57 µM) | 0.5 (≈ 5.15 µM) | 10 | 10 | 10 | 5 (≈ 51.5 µM) | – | 5 (≈ 51.5 µM) | – | Minimum Inhibitory Concentration, Ec (Escherichia coli (Ec); pH 8.2): 5 ppm; Minimum Inhibitory Concentration, Sc ([2]; pH 8.2): 5 ppm; Minimum Inhibitory Concentration, Sa ([3]; pH 8.2): 5 ppm
CSC=C(Cl)C#N [Compound G, 2-chloro-3-(methylthio)-2-propenenitrile] | – | 10 (≈ 74.8 µM) | 50 (≈ 374 µM) | 10 (≈ 74.8 µM) | – | – | – | 5 (≈ 37.4 µM) | – | – | – | – | – | – | 50 (≈ 374 µM) | – | 100 (≈ 748 µM) | MIC (Escherichia coli (Ec); Escherichia coli, pH 6.8, read-out: Minimum Inhibitory Concentration, Ec): 50 µg/mL (≈ 374 µM); MIC ([2]; Salmonella enterica, CHOLERAESUIS, pH 6.8, read-out: Minimum Inhibitory Concentration, Sc): 50 µg/mL (≈ 374 µM); MIC ([2]; Salmonella enterica, CHOLERAESUIS, pH 8.2, read-out: Minimum Inhibitory Concentration, Sc): 5 µg/mL (≈ 37.4 µM); MIC [4]: 50 µg/mL (≈ 374 µM)
N#CC#CSc1ccc(Cl)cc1 [D, 3-(4-chlorophenylthio)-2-propynenitrile] | < 10 | – | < 10 | 50 (≈ 258 µM) | < 10 | 50 (≈ 258 µM) | < 10 | – | < 1 | < 1 | 100 | 100 | 100 | 50 (≈ 258 µM) | – | 25 (≈ 129 µM) | – | –

Reference: patent US5198445A, “Composition and use of substituted 3-thio-2-propynenitriles as industrial antimicrobials” (The Dow Chemical Company, priority 1992, dated 1993)
